Values quoted from earlier work in PMC4744679 (Drug Testing and Analysis, 2015).
Each block holds one compound with its values, some of them ahead of it.

Key:
[1] = murine, single intraperitoneal injection
[2] = for Primary accumulation: inner ear, brain, kidney and liver examined
[3] = mature teratoma
[4] = rats, orally administered, 24 and 48 h after injection
[5] = 0.5–3 h of observation

Structure (SMILES): N.N.[Cl][Pt][Cl] [cisplatin, cis‐dichlorodiammineplatinum (II)]
- Main platinum accumulation [1]: kidneys and, secondly, in liver
- Primary accumulation [2]: kidney and liver
- Main deposition: kidney
- Time after administration at which platinum is detected in the tissue [3]: more than 7 years

Structure (SMILES): N.N.O=C([O-])C1(C(=O)[O-])CCC1.[Pt+2] [carboplatin, cis‐diammine(1,1‐cyclobutanedicarboxylato)platinum (II)]
- Distribution into brain and inner ear [2]: much less distributed into brain and inner ear
- Primary accumulation [2]: kidney and liver
- Main deposition: kidney

- Main accumulation organs [4]: liver, kidneys and spleen
Structure (SMILES): CC(=O)[O-].CC(=O)[O-].N.NC12CC3CC(CC(C3)C1)C2.[Cl-].[Cl-].[Pt+4] [(OC‐6‐43)‐bis (acetato) (1‐adamantylamine) amminedichloroplatinum (IV)]

- Primary accumulation sites [5]: spleen, liver, and kidneys
Structure (SMILES): CC(C)c1cc(C(=O)[O-])c([O-])c(C(C)C)c1.NC1CCCCC1N.[Pt+2] [Saliplatin, cis‐3,5‐diisopropylsalylic cyclohexano‐diaminoplatinum (II)]
